Earlier results on three compounds are cited in publication PMC3591511 (Expert reviews in molecular medicine, 2012).

One data set has as its target IL-2/IL-2Rα. The following applies: antagonist of IL-2/IL-2α receptor interaction; ref [53].

Consider `CC(C)(C)C[C@H]1N[C@@H](C(=O)NCC[C@H](O)CO)[C@H](c2cccc(Cl)c2)[C@@]12C(=O)Nc1cc(Cl)c(F)cc12.Cl` [MI-219], for which, in the data set with p53-MDM2 complex (p53-MDM2, ref [58]), the “inhibition of complex formation” value is on record as ~ 5 nM.

For the compound `COc1ccc(C2=N[C@@H](c3ccc(Cl)cc3)[C@@H](c3ccc(Cl)cc3)N2C(=O)N2CCNC(=O)C2)c(OC(C)C)c1` [Nutlin-3], the “activity towards the p53-MDM2 complex” value in the data set with p53-MDM2 complex (mid-nanomolar, enantioselective, ref [56]) is recorded as ~ 70 nM.

In general, Ki refers to the dissociation constant of the complex between target and ligand, obtained from inhibition or displacement. In the case of `CC(C)C[C@@H](N=C(N)N)C(=O)NCC(=O)N1CCC(c2cc(-c3ccc(OCc4ccc(C(=O)O)o4)c(Cl)c3Cl)nn2C)CC1` [SP4206], the Ki at IL-2/IL-2Rα is 60 nM.
